According to PubChem BioAssay AID1919 (The Scripps Research Institute Molecular Screening Center, 2009):
pIC50: −log10 of the molar value. The source made the active and inactive calls.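 Rule for the calls: active = IC50 against the VIM-2 bacterial beta-lactamase enzyme at or below a set limit; inactive = IC50 above that set limit.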

target: VIM-2 metallo-beta-lactamase (Pseudomonas aeruginosa) (UniProt Q932Y6); experiment: VIM-2 metallo-beta-lactamase inhibitor potency, dose response, biochemical, epi-absorbance readout, selective inhibitors (AID 1919); settings: purified VIM-2, nitrocefin hydrolysis, epi-absorbance fluorescence

Q: How did the IC50 turn out when O=c1c2ccccc2cnn1Cc1n[nH]c(=S)n1C1CC2CCC1C2 (stereo not drawn) was run?
A: inactive

Q: How did the IC50 turn out when COc1ccccc1-c1n[nH]c(=S)n1Cc1ccco1 was run?
A: inactive

Q: For COc1cccc(-n2c(CNC(=O)OC(C)(C)C)n[nH]c2=S)c1, which IC50 is on record?
A: inactive

Q: With COc1ccccc1C(=O)Nc1nnc(SCC(=O)NCc2ccco2)s1 as the compound, how does the pIC50 read?
A: 5.19

Q: With O=C(O)c1ccccc1Sc1ncnc2sc3c(c12)CCC3 as the compound, how does the IC50 read?
A: inactive

Q: With O=C(CSc1nnc(NC(=O)c2cccc(F)c2)s1)NCc1ccco1 as the compound, how does the IC50 read?
A: > 59.6 µM (inactive)

Q: Cc1ccccc1C(=O)Nc1nnc(SCC(=O)NCc2ccco2)s1 was tested. Which pIC50 did it give?
A: 5.52

Q: With Cn1c(-c2sccc2OCc2ccccc2)n[nH]c1=S as the compound, how does the pIC50 read?
A: 5.26

Q: S=c1[nH]nc(-c2ccco2)n1Cc1ccccc1 was tested. Which pIC50 did it give?
A: 5.19

Q: How did the IC50 turn out when Cc1cc(OCC(=O)N2CCC[C@@H]2C(=O)O)c2c(C)c(C)c(=O)oc2c1 was run?
A: inactive

Q: For O=C(O)C(NC(=O)c1ccccc1)=C(Cl)Cl, which IC50 is on record?
A: inactive

Q: How did the IC50 turn out when Cc1c(Cl)c(-c2n[nH]c(=S)n2-c2ccc(F)cc2)nn1C was run?
A: inactive

Q: How did the IC50 turn out when CSC[C@H](NC(=O)COc1cc2c(c3oc(=O)c(C)c(C)c13)CCC(C)(C)O2)C(=O)O was run?
A: inactive

Q: How did the pIC50 turn out when CCCc1cc(=O)oc2c3c(cc(OCC(=O)N4CCC[C@H]4C(=O)O)c12)OC(C)(C)CC3 was run?
A: 5.18

Q: For O=C(CSc1nnc(NC(=O)c2ccccc2F)s1)NCc1ccc(F)cc1, which IC50 is on record?
A: inactive

Q: With Cc1ccc(-c2n[nH]c(=S)n2-c2ccccc2)cc1 as the compound, how does the IC50 read?
A: > 59.6 µM (inactive)

Q: With S=c1[nH]nc(-c2cccs2)n1Cc1ccccc1 as the compound, how does the pIC50 read?
A: 5.39

Q: How did the IC50 turn out when COc1cc2c(cc1OC)C(C)N(C(=O)c1nccnc1C(=O)O)CC2 (stereo not drawn) was run?
A: inactive

Q: How did the IC50 turn out when CC1=C(C(=O)O)N2C(=O)C(NC(=O)c3nn(C)cc3[N+](=O)[O-])C2SC1 (stereo not drawn) was run?
A: inactive

Q: Which IC50 does the source give for S=c1[nH]nc(-c2ccco2)n1-c1cccc2ccccc12 here?
A: inactive

Q: With O=P(O)(O)c1ccccc1OCCCCCOc1ccccc1P(=O)(O)O as the compound, how does the pIC50 read?
A: 5.62

Q: S=c1[nH]nc(-c2ccc3ccccc3n2)n1-c1ccc2c(c1)OCCO2 was tested. Which IC50 did it give?
A: inactive

Q: With O=C(O)c1c(C(=O)O)c(-c2ccc(Br)cc2)n2c1CSC2 as the compound, how does the pIC50 read?
A: 5.32

Q: O=P(O)(O)c1ccccc1OCc1ccccc1 was tested. Which pIC50 did it give?
A: 5.61

Q: For O=C(CSc1nnc(NC(=O)C2CC2)s1)NCc1ccccc1Cl, which IC50 is on record?
A: inactive

Q: Cc1cc(=O)oc2c3c(cc(OCC(=O)N4CCC[C@H]4C(=O)O)c12)OC(C)(C)CC3 was tested. Which IC50 did it give?
A: inactive

Q: O=C(O)C1Sc2[nH]c(=O)sc2C2c3cc(Cl)ccc3OC(=O)C12 (stereo not drawn) was tested. Which IC50 did it give?
A: > 59.6 µM (inactive)

Q: CCN(CC)C(=O)CSc1nc2ccc(NC(=O)CSc3nccn3C)cc2s1 was tested. Which IC50 did it give?
A: inactive

Q: Cc1cccc(C2c3[nH]c4ccccc4c3CCN2C(=O)c2cc(CC(C)C)[nH]c(=O)n2)n1 (stereo not drawn) was tested. Which pIC50 did it give?
A: 5.10

Q: How did the IC50 turn out when S=c1[nH]nc(-c2ccccc2)n1C1C=CCCC1 (stereo not drawn) was run?
A: inactive

Q: For Fc1ccccc1-c1n[nH]c(=S)n1Cc1ccccc1, which IC50 is on record?
A: inactive

Q: How did the pIC50 turn out when Cc1ccc(-c2c(C(=O)O)c(C(=O)O)c3n2CSC3)cc1 was run?
A: 5.00

Q: How did the pIC50 turn out when C=C(C)Cn1c(-c2cccs2)n[nH]c1=S was run?
A: 5.30

Q: O=C(O)Cn1cccc1C(=O)c1ccccc1 was tested. Which IC50 did it give?
A: inactive

Q: How did the pIC50 turn out when O=C(c1ccco1)N1N=C(c2ccc(Cl)cc2)CC1c1ccco1 (stereo not drawn) was run?
A: 5.14

Q: With O=c1[nH]c2c(s1)C(c1cccnc1)C1C3CCC(C3)C1S2 (stereo not drawn) as the compound, how does the pIC50 read?
A: 7.26

Q: CCCCn1c(-c2sccc2C)n[nH]c1=S was tested. Which pIC50 did it give?
A: 5.33

Q: Cc1c(C)c2c(OCC(=O)N[C@@H](C)C(=O)O)cc3c(c2oc1=O)CCC(C)(C)O3 was tested. Which pIC50 did it give?
A: 5.35

Q: O=C(CSc1nnc(NC(=O)c2cc(Br)ccc2Cl)s1)NCC1CCCO1 (stereo not drawn) was tested. Which IC50 did it give?
A: inactive

Q: How did the IC50 turn out when NC(=O)SCC(=O)Nc1ccccc1C(=O)O was run?
A: inactive

Q: For COc1ccccc1-n1c(-c2ccco2)n[nH]c1=S, which IC50 is on record?
A: inactive

Q: How did the IC50 turn out when COc1ccc(-c2cc(C(F)(F)F)nc(N3CCN(C)CC3)n2)cc1 was run?
A: > 59.6 µM (inactive)

Q: COc1ccc(-c2n[nH]c(=S)n2-c2ccc3c(c2)OCCO3)cc1OC was tested. Which IC50 did it give?
A: inactive

Q: Cc1c(C)c2c(OCC(=O)N3CCC[C@H]3C(=O)O)cc3c(c2oc1=O)CCC(C)(C)O3 was tested. Which pIC50 did it give?
A: 5.76

Q: For O=C(CSc1nnc(NC(=O)c2ccccc2)s1)NCc1ccco1, which IC50 is on record?
A: > 59.6 µM (inactive)

Q: With CCc1cc(=O)oc2c(C)c(OCC(=O)N3CCC[C@@H]3C(=O)O)ccc12 as the compound, how does the IC50 read?
A: inactive

Q: Which IC50 does the source give for Cc1n[nH]c(C)c1CCCCOc1ccc([N+](=O)[O-])cc1 here?
A: inactive

Q: For CC(C)(C)c1ccc(COc2ccsc2C(=O)O)cc1, which IC50 is on record?
A: inactive

Q: With Cc1c(C)c2ccc(OCC(=O)N3CCC[C@@H]3C(=O)O)c(C)c2oc1=O as the compound, how does the pIC50 read?
A: 5.22

Q: Which IC50 does the source give for Cc1ccc(-n2c(-c3nn(C)c(C)c3Cl)n[nH]c2=S)cc1 here?
A: inactive

Q: O=[N+]([O-])c1ccc(-c2ccccc2)c([As](=O)(O)O)c1 was tested. Which pIC50 did it give?
A: 6.13

Q: With COCC(=O)Nc1nnc(SCC(=O)NCc2cccs2)s1 as the compound, how does the pIC50 read?
A: 5.01

Q: With Cc1cccc(C(=O)Nc2nnc(SCC(=O)NCc3ccco3)s2)c1 as the compound, how does the IC50 read?
A: > 59.6 µM (inactive)

Q: How did the pIC50 turn out when O=C(O)c1[nH]c2ccc(Br)cc2c1CCN1C(=O)c2cccc([N+](=O)[O-])c2C1=O was run?
A: 5.70

Q: How did the IC50 turn out when CC(=O)c1ccc(-c2ccc(Cn3c(C)nc4cc(N)c(C)nc43)cc2)cc1 was run?
A: > 59.6 µM (inactive)

Q: S=c1[nH]nc(C2CC2)n1Cc1ccco1 was tested. Which pIC50 did it give?
A: 5.03

Q: CSc1nc(SCC(=O)O)c2c3c(sc2n1)COC(C)(C)C3 was tested. Which IC50 did it give?
A: inactive

Q: O=c1[nH]c(SCc2n[nH]c(=S)n2-c2ccccc2)nc2sc3c(c12)CCC3 was tested. Which IC50 did it give?
A: > 59.6 µM (inactive)

Q: How did the IC50 turn out when CCCn1c(C(C)C)n[nH]c1=S was run?
A: inactive

Q: How did the IC50 turn out when S=c1[nH]nc(Cn2c(-c3ccccn3)nc3ccccc32)n1-c1ccc2c(c1)OCCO2 was run?
A: inactive

Q: CCCC(=O)Nc1nnc(SCC(=O)NCc2cccs2)s1 was tested. Which IC50 did it give?
A: inactive

Q: Which IC50 does the source give for CCOC(=O)c1[nH]c(C(=O)O)c(CCC(=O)OC)c1C here?
A: inactive

Q: Which IC50 does the source give for Cc1cc(C(=O)OCC(=O)NC(=O)c2cccn2C)c2ccccc2n1 here?
A: > 59.6 µM (inactive)

Q: How did the pIC50 turn out when Cc1cc(OCc2cc(C(=O)O)oc2C)c2c3c(c(=O)oc2c1)CCCC3 was run?
A: 5.83

Q: For Cc1nn(CCc2n[nH]c(=S)n2-c2cccc(Cl)c2)c(C)c1[N+](=O)[O-], which IC50 is on record?
A: inactive

Q: CC(C)(C)C(=O)Nc1nnc(SCC(=O)NCc2cccs2)s1 was tested. Which pIC50 did it give?
A: 5.58

Q: O=C(CSc1nnc(NC(=O)c2c(F)cccc2F)s1)NCc1ccccc1 was tested. Which pIC50 did it give?
A: 5.03

Q: How did the IC50 turn out when S=c1[nH]nc(-c2ccccc2)n1CC1CCCO1 (stereo not drawn) was run?
A: inactive

Q: Which IC50 does the source give for O=C1Nc2cc(C(=O)N3CCC(N4CCCCC4)CC3)ccc2S/C1=C\c1ccccc1 here?
A: inactive

Q: Which IC50 does the source give for O=Cc1c(NCc2ccc(Cl)cc2)c2ccccc2[nH]c1=O here?
A: inactive

Q: How did the pIC50 turn out when Cc1ccc(S(=O)(=O)n2[nH]c(=O)cc2NC(=O)c2cccs2)cc1 was run?
A: 6.34

Q: With CC(C)(C)C(=O)Nc1nnc(CSCc2ccccc2F)s1 as the compound, how does the pIC50 read?
A: 5.30

Q: COc1ccc2[nH]c(C(=O)O)c(CCN3C(=O)c4ccc(C(=O)O)cc4C3=O)c2c1 was tested. Which pIC50 did it give?
A: 5.84

Q: For S=c1[nH]nc(-c2ccccc2)n1Cc1ccccc1, which IC50 is on record?
A: inactive

Q: With O=C1Nc2cc(C(=O)NCCCN3CCOCC3)ccc2S/C1=C/c1ccccc1F as the compound, how does the IC50 read?
A: inactive

Q: With CC(C)(C)CC(=O)Nc1nnc(SCC(=O)NCc2cccs2)s1 as the compound, how does the IC50 read?
A: inactive

Q: For Cc1cccc(-n2c(C)n[nH]c2=S)c1C, which IC50 is on record?
A: > 59.6 µM (inactive)

Q: Which IC50 does the source give for CCCCn1c(-c2ccoc2C)n[nH]c1=S here?
A: inactive

Q: C=C(c1cccc2ccccc12)P(=O)(O)O was tested. Which pIC50 did it give?
A: 5.17

Q: How did the IC50 turn out when O=C(O)CC/C(=C\c1cc([N+](=O)[O-])ccc1Cl)c1nc2ccccc2s1 was run?
A: inactive

Q: With CCCCc1cc(=O)oc2c3c(cc(OCC(=O)N4CCC[C@H]4C(=O)O)c12)OC(C)(C)CC3 as the compound, how does the IC50 read?
A: inactive

Q: Which IC50 does the source give for CC(C)Cn1c(-c2ccco2)n[nH]c1=S here?
A: inactive

Q: How did the pIC50 turn out when O=C(O)c1[nH]c2ccc(Cl)cc2c1CCN1C(=O)c2ccccc2C1=O was run?
A: 5.89

Q: How did the IC50 turn out when COCC(C)NC(=O)c1cc2cccc([N+](=O)[O-])c2[nH]1 (stereo not drawn) was run?
A: inactive

Q: How did the pIC50 turn out when O=C(CSc1nnc(NC(=O)C2CCCCC2)s1)NCc1ccco1 was run?
A: 5.18

Q: CCCc1cc(=O)oc2c3c(cc(OCC(=O)N[C@@H](C)C(=O)O)c12)OC(C)(C)CC3 was tested. Which IC50 did it give?
A: inactive

Q: For CC(C)(C)c1ccc(-c2n[nH]c(=S)n2CCCN2CCOCC2)cc1, which IC50 is on record?
A: inactive

Q: How did the IC50 turn out when C=CCn1c(C2CC2)n[nH]c1=S was run?
A: inactive

Q: How did the pIC50 turn out when O=C(CCN1C(=O)/C(=C/c2ccccc2F)SC1=S)NCCCn1ccnc1 was run?
A: 5.19

Q: With CC1CCCC(C)N1C(=O)CSc1nnc(NC(=O)c2cccs2)s1 (stereo not drawn) as the compound, how does the IC50 read?
A: inactive

Q: Which IC50 does the source give for O=C(O)c1ccccc1C(=O)c1cccc2ccccc12 here?
A: inactive

Q: How did the IC50 turn out when CCOC(=O)N=S(N)(=O)c1ccccc1 (stereo not drawn) was run?
A: inactive

Q: Cc1cc(C)n(-c2nc(SCC(=O)O)c3c4c(sc3n2)COC(C)(C)C4)n1 was tested. Which IC50 did it give?
A: inactive

Q: CCn1c(-c2nn(-c3ccccc3)ccc2=O)n[nH]c1=S was tested. Which IC50 did it give?
A: inactive

Q: How did the IC50 turn out when Cn1ccnc1SCC(=O)Nc1ccc2nc(SCC(=O)NC3CC3)sc2c1 was run?
A: inactive

Q: How did the pIC50 turn out when CCCCn1c(-c2nn(C)c(C)c2Cl)n[nH]c1=S was run?
A: 5.27

Q: How did the IC50 turn out when CC1CCCCC1n1c(-c2cccnc2)n[nH]c1=S (stereo not drawn) was run?
A: inactive

Q: How did the pIC50 turn out when O=C(CSc1nnc(NC(=O)c2ccccc2[N+](=O)[O-])s1)NCc1ccco1 was run?
A: 5.16

Q: For Cc1cc(=O)oc2c3c(cc(OCC(=O)N[C@@H](Cc4ccccc4)C(=O)O)c12)OC(C)(C)CC3, which IC50 is on record?
A: inactive

Q: With S=c1[nH]nc(C2CC2)n1Cc1ccccc1 as the compound, how does the pIC50 read?
A: 5.47

Q: With Cc1c(OCC(=O)N2CCC[C@@H]2C(=O)O)ccc2c3c(c(=O)oc12)CCC3 as the compound, how does the IC50 read?
A: inactive

Q: How did the pIC50 turn out when CCCCn1c(-c2nn(C)cc2Cl)n[nH]c1=S was run?
A: 5.38

Q: How did the pIC50 turn out when S=c1[nH]nc(-c2cccs2)n1C1CCCCC1 was run?
A: 5.17
